# Data reported in article PMC5617480 (Oncotarget, 2017).
# Key:
# HeLa cells = experiment: Cytotoxicity assay (MTT assay); assay type: cell-based, human; details: 100 μM
# BEL-7404 cells = experiment: Cytotoxicity assay (MTT assay); assay type: cell-based, human; details: BEL-7404, 100 μM
# Hep-G2 cells = experiment: Cytotoxicity assay (MTT assay); assay type: cell-based, human; details: Hep-G2, 100 μM
# MGC80-3 cells = experiment: Cytotoxicity assay (MTT assay); assay type: cell-based, human; details: MGC80-3, 100 μM
# BEL-7402 cells = experiment: Cytotoxicity assay (MTT assay); assay type: cell-based, human; details: BEL-7402, 100 μM
# A549 cells = experiment: Cytotoxicity assay (MTT assay); assay type: cell-based, human; details: A549, 100 μM
# BEL-7404 xenograft = details: BEL-7404 model, 5-Fu 20.0 mg/kg per two days iv
# Experimental: In vivo anticancer efficacy of chiral platinum(II) complex 6 was evaluated using BEL-7404 and BEL-7402 xenograft mouse models. BEL-7404 and BEL-7402 cells were injected into nude mice. The mice were randomized into the control group, complex 6-treated group, and the positive control group (n = 6/group). When the volume of tumor was about 80 mm^3, complex 6 was given at a high (8 mg/kg) and low (4 mg/kg) dosage daily for 18 days, 5-FU (20 mg/kg every two days) and Cisplatin (2 mg/kg every two days) were used as a positive control in the BEL-7404 and BEL-7402 xenograft model, respectively.
# To evaluate the vivo anticancer efficacy of complex 6, BEL-7404 and BEL-7402 xenograft mouse models (BALB/c nude mice, female for BEL-7404 model, 17–20 g, 6–7 weeks old; male for BEL-7402 model, 18-21 g, 6–7 weeks old) were used. Furthermore, animal used, maximum tolerated dose (MTD) analysis, acute toxicity studies and antitumor activity toward BEL-7404 and BEL-7402 models in vivo of complex 6, was similar to Chen reported.
# H21T (3.5 pmol; 5’-G [T AG ] -3’), primer TS (18 pmol; tumor tissue were cut into about 1.5 mm3 small pieces, and […]
# 5’-[…]-3’), KCl (63 mM), then transplanted into the right flank of nude mice. When EGTA (1 mM), MgCl (1.5 mM), Tween-20 (0.005%), the average tumors reach a volume of about 80 mm3, the […]
# primer NT (7.5 pmol; 5’-[…]-3’), mice were randomized into 4 groups (n=6), received the […]
# TSNT internal control (0.01 amol; 5’-[…] following treatments: (a) control, received saline solvent; […]
# -3’), primer (b) complex 6 at doses of 8.0 mg/kg daily (dissolve in […]
# Cxext (22.5 pmol; 5’-[…] saline, iv); (c) complex 6 at doses of 4.0 mg/kg daily; […]
# […]-3’), Taq DNA polymerase (2.5 U), and (d) in BEL-7404 model, 5-fluorouracil (5-Fu) as positive telomerase (100 ng). Complexes or/and distilled water control at 20 mg/kg per two days (dissolve in saline, iv); was added ([…]). PCR was performed in an Eppendorf in BEL-7402 model, cisplatin as positive control at 2 mg/ Master cycler equipped with a hot lid and incubated for kg per two days (dissolve in saline, iv).
# 30.0 min at 30 °C, followed by 92 °C 30 s, 52 °C 30 s, The tumor volumes and body weight was monitored and 72°C 30 s for 30.0 cycles. After amplification, 8.0 every 3 days, The tumor volumes were estimated by […] loading buffer (5×TBE buffer, 0.2% xylene cyanol, measuring the two dimensions of the tumors using caliper and 0.2% bromophenol blue ) were added to the reaction. and calculated by the formula 1 [1, 6, 14]:
# An […] of aliquot was loaded onto a nondenaturing V = (length × width2)/2(1) acrylamide gel (19:1, 16%) in 1×TBE buffer and resolved at 200.0 V for 1.0 h. Gels were fixed and then stained with On day 18, the mice were sacrificed, and tumor AgNO3 [8–11]. tissue were dissected out and weighted, tumor growth inhibition rate calculated using formulas 2 and 3 [1, 6,
# In order to verify whether complexes 4–6 can TGI (%) = (ΔVc − ΔVt)/ΔVc×100%(2) directly regulate c-myc promoter (Pu27) and the IR(%) = (Wc − Wt)/Wc×100%(3) expression of hTRET in BEL-7404 cells, consequently Where ΔVt = tumor volumefinal −tumor volumeinitial inhibiting the telomerase function, we constructed EGFP for compound treated group, ΔVc=tumor volumefinal − and c-myc gene vectors according to those illustrated tumor volumeinitial for vehicle control group; Wt and Wc in Chalfie, Chen and He previous work. The detailed mean the average tumor weight of complex-treated and procedures for the construct of gene (c-myc and EGFP vehicle controlled group respectively. genes) vectors, and the method of transfection assays REFERENCES have been reported by Chalfie, Chen and He [1, 6, 9, 12,
structure (smiles),measurement,setting,value
C[S](C)(=O)[Pt]([Cl])([Cl])[S](C)(C)=O [cis-Pt(DMSO)2Cl2],Inhibitory rates (%),HeLa cells; 24 h,19.8 ± 0.7%
same,Inhibitory rates (%),HeLa cells; 48 h,25.4 ± 1.2%
same,Inhibitory rates (%),BEL-7404 cells; 24 h,5.3 ± 1.5%
same,Inhibitory rates (%),BEL-7404 cells; 48 h,8.0 ± 0.7%
same,Inhibitory rates (%),Hep-G2 cells; 24 h,10.1 ± 0.4%
same,Inhibitory rates (%),Hep-G2 cells; 48 h,13.8 ± 0.7%
same,Inhibitory rates (%),MGC80-3 cells; 24 h,10.2 ± 1.3%
same,Inhibitory rates (%),MGC80-3 cells; 48 h,30.4 ± 0.8%
same,Inhibitory rates (%),BEL-7402 cells; 24 h,8.6 ± 2.4%
same,Inhibitory rates (%),BEL-7402 cells; 48 h,12.3 ± 0.4%
same,Inhibitory rates (%),A549 cells; 24 h,15.1 ± 1.7%
same,Inhibitory rates (%),A549 cells; 48 h,22.3 ± 0.5%
"O=c1[nH]cc(F)c(=O)[nH]1 [5-FU, 5-fluorouracil, reference compound]",Tumor volume (start),BEL-7404 xenograft,75.95±25.57 mm3
same,Average tumor weight (mean ± SD g),BEL-7404 xenograft; day 18,0.47 ± 0.20 g
same,Tumor volume (end),BEL-7404 xenograft; day 18,576.17±297.34 mm3
